Experimental data reported in US9586931B2 (Merck Sharp & Dohme Corp., priority 2012, dated 2017).
pIC50: −log10 of the molar value.

Molecular target: T1, recombinant human GST-Syk (Homo sapiens, UniProt P43405)
T1 construct: purchased Carna Biosciences 08-176
Assay: Homogeneous Time-Resolved Fluorescence (HTRF) assay for the recombinant human Syk enzyme
Assay type: biochemical
Conditions: recombinant human GST-Syk 5 pM, ATP 25 μM, 10-dose titration 10 μM to 0.508 nM; read-out: rhSYK Activity IC50
How it was run: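 GST-hSyk fusion protein phosphorylated a peptide for 45 min at room temperature. The reaction was quenched with 2 nM Eu-anti-phosphotyrosine antibody and 70 nM SA-APC in 15 mM Tris pH 7.5, 40 mM EDTA, 0.01% Tween 20. The HTRF signal was read after 30 min.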

| SMILES | pIC50 |
| --- | --- |
| Cc1cc(Nc2ncc(F)c(C(F)F)n2)cc(-c2cn(CC3OC(=O)NC3C)nn2)c1 (single isomer, unassigned) [Example 7.37, 5-{[4-(3-{[4-(difluoromethyl)-5-fluoropyrimidin-2-yl]amino}-5-methylphenyl)-1H-1,2,3-triazol-1-yl]methyl}-4-methyl-1,3-oxazolidin-2-one] | 7.80 |
| Cc1cc(Nc2ncc(F)c(C(F)F)n2)cc(-c2cn(CC3OC(=O)NC3C)nn2)c1 (single isomer, unassigned) [Example 7.38, 5-{[4-(3-{[4-(difluoromethyl)-5-fluoropyrimidin-2-yl]amino}-5-methylphenyl)-1H-1,2,3-triazol-1-yl]methyl}-4-methyl-1,3-oxazolidin-2-one] | 7.48 |
| Cc1cc(Nc2ncc(F)c(C(F)F)n2)cc(-c2cn(CC3OC(=O)NC3C)nn2)c1 (single isomer, unassigned) [Example 7.39, 5-{[4-(3-{[4-(difluoromethyl)-5-fluoropyrimidin-2-yl]amino}-5-methylphenyl)-1H-1,2,3-triazol-1-yl]methyl}-4-methyl-1,3-oxazolidin-2-one] | 7.91 |
| Cc1cc(Nc2ncc(F)c(C(F)F)n2)cc(-c2cn(CC3OC(=O)NC3C)nn2)c1 (single isomer, unassigned) [Example 7.40, 5-{[4-(3-{[4-(difluoromethyl)-5-fluoropyrimidin-2-yl]amino}-5-methylphenyl)-1H-1,2,3-triazol-1-yl]methyl}-4-methyl-1,3-oxazolidin-2-one] | 7.59 |
| Cc1cc(Nc2nccc(C(F)F)n2)cc(-c2cn(CC3OC(=O)NC3C)nn2)c1 (single isomer, unassigned) [Example 7.41, 5-{[4-(3-{[4-(difluoromethyl)pyrimidin-2-yl]amino}-5-methylphenyl)-1H-1,2,3-triazol-1-yl]methyl}-4-methyl-1,3-oxazolidin-2-one] | 7.89 |
| Cc1cc(Nc2nccc(C(F)F)n2)cc(-c2cn(CC3OC(=O)NC3C)nn2)c1 (single isomer, unassigned) [Example 7.42, 5-{[4-(3-{[4-(difluoromethyl)pyrimidin-2-yl]amino}-5-methylphenyl)-1H-1,2,3-triazol-1-yl]methyl}-4-methyl-1,3-oxazolidin-2-one] | 7.97 |
| Cc1cc(Nc2cc(C(F)F)ccn2)nc(-c2cn(CC3OC(=O)NC3C)nn2)c1 (single isomer, unassigned) [Example 7.43, 5-{[4-(6-{[4-(difluoromethyl)pyridin-2-yl]amino}-4-methylpyridin-2-yl)-1H-1,2,3-triazol-1-yl]methyl}-4-methyl-1,3-oxazolidin-2-one] | 8.42 |
| Cc1cc(Nc2cc(C(F)F)ccn2)nc(-c2cn(CC3OC(=O)NC3C)nn2)c1 (single isomer, unassigned) [Example 7.44, 5-{[4-(6-{[4-(difluoromethyl)pyridin-2-yl]amino}-4-methylpyridin-2-yl)-1H-1,2,3-triazol-1-yl]methyl}-4-methyl-1,3-oxazolidin-2-one] | 7.74 |
| Cc1cc(Nc2cc(C(F)(F)F)ccn2)nc(-c2cn(C3CCC(C(=O)O)C(C)(C)C3)nn2)c1 (single isomer, unassigned) [Example 9.1, (R or S) 2,2-Dimethyl-4-[4-(4-methyl-6-{[4-(trifluoromethyl)pyridin-2-yl]amino}pyridin-2-yl)-1 H-1,2,3-triazol-1-yl]cyclohexanecarboxylic acid] | 8.43 |
| Cc1cc(Nc2cc(C(F)(F)F)ccn2)nc(-c2cn(C3CCCCC(O)C3O)nn2)c1 (single isomer, unassigned) [Example 10.2, 3-[4-(4-methyl-6-{[4-(trifluoromethyl)pyridin-2-yl]amino}pyridin-2-yl)-1H-1,2,3-triazol-1-yl]cycloheptane-1,2-diol] | 7.75 |
| Cc1cc(Nc2cc(C(F)(F)F)ccn2)nc(-c2cn(C3CCCCC(O)C3O)nn2)c1 (single isomer, unassigned) [Example 10.3, 3-[4-(4-methyl-6-{[4-(trifluoromethyl)pyridin-2-yl]amino}pyridin-2-yl)-1H-1,2,3-triazol-1-yl]cycloheptane-1,2-diol] | 9.00 |
| Cc1cc(Nc2cc(C(F)(F)F)ccn2)nc(-c2cn(C3CCCCC(O)C3O)nn2)c1 (single isomer, unassigned) [Example 10.4, 3-[4-(4-methyl-6-{[4-(trifluoromethyl)pyridin-2-yl]amino}pyridin-2-yl)-1H-1,2,3-triazol-1-yl]cycloheptane-1,2-diol] | 8.48 |
| Cc1cc(Nc2cc(C(F)(F)F)ccn2)nc(-c2cn(C3CCCCC(O)C3O)nn2)c1 (single isomer, unassigned) [Example 10.5, 3-[4-(4-methyl-6-{[4-(trifluoromethyl)pyridin-2-yl]amino}pyridin-2-yl)-1H-1,2,3-triazol-1-yl]cycloheptane-1,2-diol] | 8.59 |
| Cc1cc(Nc2cc(C(F)(F)F)ccn2)nc(-c2cn(C3CCCCC(O)C3O)nn2)c1 (single isomer, unassigned) [Example 10.6, 3-[4-(4-methyl-6-{[4-(trifluoromethyl)pyridin-2-yl]amino}pyridin-2-yl)-1H-1,2,3-triazol-1-yl]cycloheptane-1,2-diol] | 8.33 |
| Cc1cc(Nc2cc(C(F)(F)F)ccn2)nc(-c2cn(C3CN(C(=O)C(C)O)CC3O)nn2)c1 (single isomer, unassigned) [Example 13.2, 1-[2-hydroxypropanoyl]-4-[4-(4-methyl-6-{[4-(trifluoromethyl)pyridin-2-yl]amino}pyridin-2-yl)-1H-1,2,3-triazol-1-yl]pyrrolidin-3-ol] | 7.63 |
| Cc1cc(Nc2cc(C(F)(F)F)ccn2)nc(-c2cn(C3CN(C(=O)C(C)O)CC3O)nn2)c1 (single isomer, unassigned) [Example 13.3, 1-[2-hydroxypropanoyl]-4-[4-(4-methyl-6-{[4-(trifluoromethyl)pyridin-2-yl]amino}pyridin-2-yl)-1H-1,2,3-triazol-1-yl]pyrrolidin-3-ol] | 7.98 |
| Cc1cc(Nc2cc(C(F)(F)F)ccn2)nc(-c2cn(C3CN(C(=O)C(C)O)CC3O)nn2)c1 (single isomer, unassigned) [Example 13.4, 1-[2-hydroxypropanoyl]-4-[4-(4-methyl-6-{[4-(trifluoromethyl)pyridin-2-yl]amino}pyridin-2-yl)-1H-1,2,3-triazol-1-yl]pyrrolidin-3-ol] | 7.82 |

Continued, values first:

| pIC50 | SMILES |
| --- | --- |
| 8.21 | Cc1cc(Nc2nccc(C)n2)cc(-c2cn(C[C@](C)(O)CO)nn2)c1 (single isomer, unassigned) [Example 21.1, 2-Methyl-3-(4-(3-methyl-5-((4-methylpyrimidin-2-yl)amino)phenyl)-1H-1,2,3-triazol-1-yl)propane-1,2-diol] |
| 8.70 | Cc1cc(Nc2nccc(C)n2)cc(-c2cn(C[C@](C)(O)CO)nn2)c1 (single isomer, unassigned) [Example 21.2, 2-methyl-3-(4-(3-methyl-5-((4-methylpyrimidin-2-yl)amino)phenyl)-1H-1,2,3-triazol-1-yl)propane-1,2-diol] |
| 8.15 | Cc1cc(Nc2nccc(C(F)(F)F)n2)cc(-c2cn(CC(C)(O)CO)nn2)c1 (single isomer, unassigned) [Example 21.3, 2-methyl-3-[4-(3-methyl-5-{[4-(trifluoromethyl)pyrimidin-2-yl]amino}phenyl)-1H-1,2,3-triazol-1-yl]propane-1,2-diol] |
| 7.99 | Cc1cc(Nc2nccc(C(F)(F)F)n2)cc(-c2cn(CC(C)(O)CO)nn2)c1 (single isomer, unassigned) [Example 21.4, 2-methyl-3-[4-(3-methyl-5-{[4-(trifluoromethyl)pyrimidin-2-yl]amino}phenyl)-1H-1,2,3-triazol-1-yl]propane-1,2-diol] |
| 7.33 | CC(O)(CO)Cn1cc(-c2cccc(Nc3nccc(C(F)(F)F)n3)c2)nn1 (single isomer, unassigned) [Example 21.5, 2-methyl-3-[4-(3-{[4-(trifluoromethyl)pyrimidin-2-yl]amino}phenyl)-1H-1,2,3-triazol-1-yl]propane-1,2-diol] |
| 7.35 | CC(O)(CO)Cn1cc(-c2cccc(Nc3nccc(C(F)(F)F)n3)c2)nn1 (single isomer, unassigned) [Example 21.6, 2-methyl-3-[4-(3-{[4-(trifluoromethyl)pyrimidin-2-yl]amino}phenyl)-1H-1,2,3-triazol-1-yl]propane-1,2-diol] |
| 8.14 | Cc1cc(Nc2nccc(C(F)F)n2)cc(-c2cn(CC(C)(O)CO)nn2)c1 (single isomer, unassigned) [Example 21.7, 3-[4-(3-{[4-(difluoromethyl)pyrimidin-2-yl]amino}-5-methylphenyl)-1H-1,2,3-triazol-1-yl]-2-methylpropane-1,2-diol] |
| 7.88 | Cc1cc(Nc2nccc(C(F)F)n2)cc(-c2cn(CC(C)(O)CO)nn2)c1 (single isomer, unassigned) [Example 21.8, 3-[4-(3-{[4-(difluoromethyl)pyrimidin-2-yl]amino}-5-methylphenyl)-1H-1,2,3-triazol-1-yl]-2-methylpropane-1,2-diol] |
| 7.84 | Cc1cc(Nc2nccc(C(F)F)n2)cc(-c2cn(CC3CNCCO3)nn2)c1 (single isomer, unassigned) [Example 22.1, 4-(Difluoromethyl)-N-(3-methyl-5-(1-(morpholin-2-ylmethyl)-1H-1,2,3-triazol-4-yl)phenyl) pyrimidin-2-amine] |
| 8.77 | Cc1cc(Nc2nccc(C(F)F)n2)cc(-c2cn(CC3CNCCO3)nn2)c1 (single isomer, unassigned) [Example 22.2, 4-(difluoromethyl)-N-(3-methyl-5-(1-(morpholin-2-ylmethyl)-1H-1,2,3-triazol-4-yl)phenyl) pyrimidin-2-amine] |
| 8.14 | Cc1cc(Nc2cc(C(F)F)ccn2)nc(-c2cn(CC(C)(O)CC#N)nn2)c1 (single isomer, unassigned) [Example 23.1, 4-(4-(6-((4-(difluoromethyl)pyridin-2-yl)amino)-4-methylpyridin-2-yl)-1H-1,2,3-triazol-1-yl)-3-hydroxy-3-methylbutanenitrile] |
